US20070049564A1 (Wyeth, priority 2005, published 2007)
Converted amounts (≈) assume the structure as drawn. Read-outs that look alike come from different tables or passages of the source.

Tests used:
E. coli GC 2231 = test: MIC, broth microdilution; conditions: Escherichia coli, GC2231, E. coli GC 2231
E. coli GC 2232 = test: MIC, broth microdilution; conditions: Escherichia coli, GC2232, E. coli GC 2232
E. coli GC 2234 = test: MIC, broth microdilution; conditions: Escherichia coli, GC2234, E. coli GC 2234
E. coli GC 2272 = test: MIC, broth microdilution; conditions: Escherichia coli, GC2272, E. coli GC 2272
E. coli GC 4559 = test: MIC, broth microdilution; conditions: Escherichia coli, GC4559, E. coli GC 4559
E. coli GC 4560 = test: MIC, broth microdilution; conditions: Escherichia coli, GC4560, E. coli GC 4560
E. coli GC 6465 = test: MIC, broth microdilution; conditions: Escherichia coli, GC6465, E. coli GC 6465
E. coli GC 2203 = test: MIC, broth microdilution; conditions: Escherichia coli, GC2203, E. coli GC 2203
P. aeruginosa GC 2214 = test: MIC, broth microdilution; conditions: Pseudomonas aeruginosa, GC2214, P. aeruginosa GC 2214
Method: (§1) Antimicrobial susceptibility testing. The in vitro activities of the antibiotics are determined by the broth microdilution method as recommended by the National Committee for Clinical Laboratory Standards (NCCLS) (1). Mueller-Hinton II broth (MHBII)(BBL Cockeysville, Md.) is the medium employed in the testing procedures. Microtiter plates containing serial dilutions of each antimicrobial agent are inoculated with each organism to yield the appropriate density (10^5 CFU/ml) in a 100 μl final volume. The plates are incubated for 18-22 hours at 35° C. in ambient air.
(§2) Representative compounds were first incubated in mouse serum for an hour prior to the in vitro testing against a panel of selected gram-positive and gram-negative bacteria strains. All compounds were also pre-incubated in water for an hour prior to testing as control.

S. aureus GC 1131 = test: MIC, broth microdilution; conditions: Staphylococcus aureus, GC1131, S. aureus GC 1131
S. aureus GC 6466 = test: MIC, broth microdilution; conditions: Staphylococcus aureus, GC6466, S. aureus GC 6466
S. aureus GC 6467 = test: MIC, broth microdilution; conditions: Staphylococcus aureus, GC6467, S. aureus GC 6467
S. aureus GC 4536 = test: MIC, broth microdilution; conditions: Staphylococcus aureus, GC4536, S. aureus GC 4536
S. aureus GC 2216 = test: MIC, broth microdilution; conditions: Staphylococcus aureus, GC2216, S. aureus GC 2216
S. epidermidis GC 4935 = test: MIC, broth microdilution; conditions: Staphylococcus epidermidis, GC4935, S. epidermidis GC 4935
E. faecalis GC 2267 = test: MIC, broth microdilution; conditions: Enterococcus faecalis, GC2267, E. faecalis GC 2267
E. faecalis GC 2242 = test: MIC, broth microdilution; conditions: Enterococcus faecalis, GC2242, E. faecalis GC 2242
S. pneumoniae* GC 4465 = test: MIC, broth microdilution; conditions: Streptococcus pneumoniae, S. pneumoniae* GC 4465
S. pneumoniae+ GC 4465 = test: MIC, broth microdilution; conditions: Streptococcus pneumoniae, S. pneumoniae+ GC 4465
Method: as §1, §2

Staph. aureus Smith = test: In vivo activity (oral, iv; ED50) against Staph. aureus Smith in mice
Method: Representative examples of compounds of Formula I were tested for the oral efficacy using S. aureus Smith in mice.

[1] = Staphylococcus aureus, in Mus musculus, po, read-out: ED50 Staph Smith SOD
[2] = iv, read-out: ED50 Staph Smith SIV

Structure (SMILES)	MIC (E. coli GC 2231; Mouse Serum pre-incubation)	MIC (E. coli GC 2231; Water pre-incubation)	MIC (E. coli GC 2232; Mouse Serum pre-incubation)	MIC (E. coli GC 2232; Water pre-incubation)	MIC (E. coli GC 2234; Mouse Serum pre-incubation)	MIC (E. coli GC 2234; Water pre-incubation)	MIC (E. coli GC 2272; Mouse Serum pre-incubation)	MIC (E. coli GC 2272; Water pre-incubation)	MIC (E. coli GC 4559; Mouse Serum pre-incubation)	MIC (E. coli GC 4559; Water pre-incubation)	MIC (E. coli GC 4560; Mouse Serum pre-incubation)	MIC (E. coli GC 4560; Water pre-incubation)	MIC (E. coli GC 6465; Mouse Serum pre-incubation)	MIC (E. coli GC 6465; Water pre-incubation)	MIC (E. coli GC 2203; Mouse Serum pre-incubation)	MIC (E. coli GC 2203; Water pre-incubation)	MIC (P. aeruginosa GC 2214; Mouse Serum pre-incubation)	MIC (P. aeruginosa GC 2214; Water pre-incubation)	MIC (S. aureus GC 1131; Mouse Serum pre-incubation)	MIC (S. aureus GC 1131; Water pre-incubation)	other results
CCCN(CC(=O)Nc1cc(N(C)C)c2c(c1O)C(=O)C1=C(O)[C@]3(O)C(=O)C(C(N)=O)=C(O)[C@@H](N(C)C)[C@@H]3C[C@@H]1C2)C(=O)OCOC(=O)C(C)C [Example 10, ({[(2-{[(5aR,6aS,7S,10aS)-9-(aminocarbonyl)-4,7-bis(dimethylamino)-1,8,10a,11-tetrahydroxy-10,12-dioxo-5,5a,6,6a,7,10,10a,12-octahydrotetracen-2-yl]amino}-2-oxoethyl)(propyl)amino]carbonyl}oxy)methyl 2-methylpropanoate]	2 µg/mL (≈ 2.79 µM)	32 µg/mL (≈ 44.7 µM)	0.5 µg/mL (≈ 0.699 µM)	8 µg/mL (≈ 11.2 µM)	0.5 µg/mL (≈ 0.699 µM)	8 µg/mL (≈ 11.2 µM)	0.5 µg/mL (≈ 0.699 µM)	8 µg/mL (≈ 11.2 µM)	0.5 µg/mL (≈ 0.699 µM)	16 µg/mL (≈ 22.4 µM)	0.12 µg/mL (≈ 0.168 µM)	0.12 µg/mL (≈ 0.168 µM)	8 µg/mL (≈ 11.2 µM)	> 64 µg/mL	0.5 µg/mL (≈ 0.699 µM)	8 µg/mL (≈ 11.2 µM)	16 µg/mL (≈ 22.4 µM)	> 64 µg/mL	0.12 µg/mL (≈ 0.168 µM)	0.12 µg/mL (≈ 0.168 µM)	MIC (S. aureus GC 6466; Mouse Serum pre-incubation): 0.12 µg/mL (≈ 0.168 µM); MIC (S. aureus GC 6466; Water pre-incubation): 0.12 µg/mL (≈ 0.168 µM); MIC (S. aureus GC 6467; Mouse Serum pre-incubation): 2 µg/mL (≈ 2.79 µM); MIC (S. aureus GC 6467; Water pre-incubation): 2 µg/mL (≈ 2.79 µM); MIC (S. aureus GC 4536; Mouse Serum pre-incubation): 0.25 µg/mL (≈ 0.349 µM); MIC (S. aureus GC 4536; Water pre-incubation): 0.5 µg/mL (≈ 0.699 µM); MIC (S. aureus GC 2216; Mouse Serum pre-incubation): 0.25 µg/mL (≈ 0.349 µM); MIC (S. aureus GC 2216; Water pre-incubation): 0.5 µg/mL (≈ 0.699 µM); MIC (S. epidermidis GC 4935; Mouse Serum pre-incubation): 0.5 µg/mL (≈ 0.699 µM); MIC (S. epidermidis GC 4935; Water pre-incubation): 1 µg/mL (≈ 1.4 µM); MIC (E. faecalis GC 2267; Mouse Serum pre-incubation): 1 µg/mL (≈ 1.4 µM); MIC (E. faecalis GC 2267; Water pre-incubation): 2 µg/mL (≈ 2.79 µM); MIC (E. faecalis GC 2242; Mouse Serum pre-incubation): 0.25 µg/mL (≈ 0.349 µM); MIC (E. faecalis GC 2242; Water pre-incubation): 0.5 µg/mL (≈ 0.699 µM); MIC (S. pneumoniae* GC 4465; Mouse Serum pre-incubation): < 0.06 µg/mL; MIC (S. pneumoniae* GC 4465; Water pre-incubation): < 0.06 µg/mL; MIC (S. pneumoniae+ GC 4465; Mouse Serum pre-incubation): 1 µg/mL (≈ 1.4 µM); MIC (S. pneumoniae+ GC 4465; Water pre-incubation): 1 µg/mL (≈ 1.4 µM); ED50 (Staph. aureus Smith; [1]): 13.6 mg/kg; ED50 (Staph. aureus Smith; [2]): 0.36 mg/kg
CCCCN(CC(=O)Nc1cc(N(C)C)c2c(c1O)C(=O)C1=C(O)[C@]3(O)C(=O)C(C(N)=O)=C(O)[C@@H](N(C)C)C3CC1C2)C(=O)OCOC(=O)c1ccc(OC)cc1 (stereo partly drawn) [Example 2, ({[(2-{[(7S,10aS)-9-(aminocarbonyl)-4,7-bis(dimethylamino)-1,8,10a,11-tetrahydroxy-10,12-dioxo-5,5a,6,6a,7,10,10a,12-octahydrotetracen-2-yl]amino}-2-oxoethyl)(butyl)amino]carbonyl}oxy)methyl 4-methoxybenzoate]	4 µg/mL (≈ 5.04 µM)	64 µg/mL (≈ 80.6 µM)	2 µg/mL (≈ 2.52 µM)	64 µg/mL (≈ 80.6 µM)	1 µg/mL (≈ 1.26 µM)	64 µg/mL (≈ 80.6 µM)	1 µg/mL (≈ 1.26 µM)	64 µg/mL (≈ 80.6 µM)	1 µg/mL (≈ 1.26 µM)	64 µg/mL (≈ 80.6 µM)	0.25 µg/mL (≈ 0.315 µM)	4 µg/mL (≈ 5.04 µM)	8 µg/mL (≈ 10.1 µM)	64 µg/mL (≈ 80.6 µM)	2 µg/mL (≈ 2.52 µM)	64 µg/mL (≈ 80.6 µM)	> 64 µg/mL	> 64 µg/mL	2 µg/mL (≈ 2.52 µM)	4 µg/mL (≈ 5.04 µM)	MIC (S. aureus GC 6466; Mouse Serum pre-incubation): 1 µg/mL (≈ 1.26 µM); MIC (S. aureus GC 6466; Water pre-incubation): 2 µg/mL (≈ 2.52 µM); MIC (S. aureus GC 6467; Mouse Serum pre-incubation): 4 µg/mL (≈ 5.04 µM); MIC (S. aureus GC 6467; Water pre-incubation): 8 µg/mL (≈ 10.1 µM); MIC (S. aureus GC 4536; Mouse Serum pre-incubation): 2 µg/mL (≈ 2.52 µM); MIC (S. aureus GC 4536; Water pre-incubation): 4 µg/mL (≈ 5.04 µM); MIC (S. aureus GC 2216; Mouse Serum pre-incubation): 2 µg/mL (≈ 2.52 µM); MIC (S. aureus GC 2216; Water pre-incubation): 4 µg/mL (≈ 5.04 µM); MIC (S. epidermidis GC 4935; Mouse Serum pre-incubation): 8 µg/mL (≈ 10.1 µM); MIC (S. epidermidis GC 4935; Water pre-incubation): 8 µg/mL (≈ 10.1 µM); MIC (E. faecalis GC 2267; Mouse Serum pre-incubation): 4 µg/mL (≈ 5.04 µM); MIC (E. faecalis GC 2267; Water pre-incubation): 4 µg/mL (≈ 5.04 µM); MIC (E. faecalis GC 2242; Mouse Serum pre-incubation): 4 µg/mL (≈ 5.04 µM); MIC (E. faecalis GC 2242; Water pre-incubation): 4 µg/mL (≈ 5.04 µM); MIC (S. pneumoniae* GC 4465; Mouse Serum pre-incubation): 0.5 µg/mL (≈ 0.63 µM); MIC (S. pneumoniae* GC 4465; Water pre-incubation): 0.25 µg/mL (≈ 0.315 µM); MIC (S. pneumoniae+ GC 4465; Mouse Serum pre-incubation): 2 µg/mL (≈ 2.52 µM); MIC (S. pneumoniae+ GC 4465; Water pre-incubation): 4 µg/mL (≈ 5.04 µM); ED50 (Staph. aureus Smith; [1]): 13.3 mg/kg; ED50 (Staph. aureus Smith; [2]): 0.71 mg/kg
